Consider five compounds from patent US12496275B2, “Drug delivery methods and compositions” (Mayo Foundation for Medical Education and Research, priority 2019, dated 2025).

Series [1] in a line: Analysis of encapsulation efficiency and drug loading efficiency of liposomes. It counts as physicochemical. The method, then:
Analysis of encapsulation efficiency and drug loading efficiency: Liposome-encapsulation efficiency was measured by determining the amount of entrapped drugs. Briefly, the drug-loaded liposome sample was centrifuged in an amicon ultra centrifugal filter with a cut off size of 3 kD in order to separate the unentrapped drug. Total (Tdrug) and unentrapped drug (UEdrug) amounts were determined by measuring the absorbance at λx of respective drugs and comparing with corresponding standard curves. The encapsulated drug (Edrug) amount was calculated by subtracting the amount of unentrapped drugs (UEdrug) from total drug (Tdrug) amount. The drug-encapsulation efficiency (EE %) was expressed as the percentage of the encapsulated amount (Edrug) to the total amount (Tdrug). Drug loading efficiency was expressed as the percentage of encapsulated drug (Edrug) to the total lipid amount (Tlipid).

For series [2] the following is noted: stated, no test described; cited from earlier work.
The test system of a further series is AsPC-1 tumors. Description: Validation study, GIPC-1 knockdown plus gemcitabine, 5 mice per group. It counts as in vivo. The note with it: AsPC-1, 5 mice per group, gemcitabine 10 mg/kg. The method, then:
(§1) This strategy is currently being used in ‘Avatar’ models for the development of personalized therapy for various diseases. These ‘Avatar’ models are developed by implanting patient tumor samples in mice for subsequent drug efficacy studies. […] We used the same strategy in our SMT. All procedures were performed according to the approved guidelines. For the pancreatic cancer orthotopic model, 6-8-week-old female SCID mice were obtained from in-house breeding. Approximately, 1×10^6 luciferase-labeled Tet-inducible GIPC-1 shRNA vector-transfected AsPC-1 or PANC-1 cells, resuspended in 100 μL of PBS were injected into the pancreas of each mouse. After three days of cell inoculation, GIPC-1 knockdown was induced by adding doxycycline (0.5 mg/mL) in drinking water for the remainder of the study. […] After completion of the experiment, all tumor-bearing mice were euthanized with CO2; tumors were harvested, and tumor volumes and weights were measured.

The test system of series [3] is PANC-1 orthotopic xenografts. Description: Single mouse trial, GIPC-1 knockdown plus gemcitabine. It counts as in vivo, mice. The note with it: PANC-1, single mouse, gemcitabine 10 mg/kg.
Excerpt: as §1, with “In vivo tumor growth inhibition experiment: A single mouse trial (SMT) was used to assess the in vivo tumor inhibition study in combination with GIPC-1 knockdown plus gemcitabine treatment. This” for “This”

The subject of series [4] is AsPC-1 orthotopic xenografts. Described as above. The settings on record: AsPC-1, single mouse, gemcitabine 10 mg/kg. It counts as in vivo, mice.
Excerpt: as §1, with “In vivo tumor growth inhibition experiment: A single mouse trial (SMT) was used to assess the in vivo tumor inhibition study in combination with GIPC-1 knockdown plus gemcitabine treatment. This” for “This”

The next series deals with PANC-1 cells. Description: In vitro gemcitabine sensitivity after Tet-inducible GIPC shRNA knockdown. It counts as cell-based, human. The note with it: PANC-1, 0.5 μM to 50 μM, 72 h. The method, then:
(§2) Antibodies. Antibody for β-actin and horseradish peroxidase-conjugated secondary antibodies were purchased from Santa Cruz Biotechnology. Anti-GIPC antibody was purchased from Thermo Fisher, USA. shRNA Transfection. The plasmids for Tet-on-inducible GIPC1 shRNA were purchased from Dharmacon, US. Lentivirus stocks for GIPC1 shRNA were prepared and infected into the target cells following standard procedures. After infection, 2 μg/mL of puromycin was added to the medium for antibiotic selection. For the Tet-On-inducible GIPC shRNA, 0.4 μg/mL of doxycycline was used to induce shRNA expression in the stably infected cells.
(§3) In vitro cytotoxicity assay: Approximately, 5×10^3 cells were seeded in 384-well plates. After 18-24 h, cells were treated with increasing concentrations of gemcitabine and incubated for further 72 h. At the end of the incubation, cell viability was measured using CellTiter-Glo® 2.0 Assay (Promega) as per the manufacturer's protocol. Briefly, 24 μL of reagent was added to each well. The plate was incubated at RT for 10 minutes and luminescence signals were measured using Spectramax i3x. Percentage viability is calculated as follows: Viability (%)=100×(ATreated−ABlank)/(AUntreated−ABlank).

The subject of a further series is AsPC-1 cells. The description is as above. It counts as cell-based, human. The settings on record: AsPC-1, 0.5 μM to 50 μM, 72 h. The method, then:
as §2, §3

In the case of `NC(N)=NCCC[C@H](NC(=O)c1sccc1NS(=O)(=O)c1cccc2nsnc12)C(=O)O` [EG00229], in series [1] (EG00229), the “% of Total drug loading w.r.t Total lipid” value is listed as 2.2% and the “Encapsulation efficiencies (%)” value is 30%.
As to `CCc1c2c(nc3ccc(OC(=O)N4CCC(N5CCCCC5)CC4)cc13)-c1cc3c(c(=O)n1C2)COC(=O)[C@]3(O)CC` [IRT, irinotecan], in series [2], the water solubility entry is given as “poorly water-soluble”.
As to `CO[C@H]1C[C@@H]2CC[C@@H](C)[C@@](O)(O2)C(=O)C(=O)N2CCCC[C@H]2C(=O)O[C@H]([C@H](C)C[C@@H]2CC[C@@H](OCCO)[C@H](OC)C2)CC(=O)[C@H](C)/C=C(\C)[C@@H](O)[C@@H](OC)C(=O)[C@H](C)C[C@H](C)/C=C/C=C/C=C/1C` [everolimus], in series [1] (everolimus), the “% of Total drug loading w.r.t Total lipid” value came out at 7.29% and the “Encapsulation efficiencies (%)” value is listed as approximately 100%. Besides, in series [2], the water solubility entry is “water insoluble”.
Regarding `Nc1ccn([C@@H]2O[C@H](CO)[C@@H](O)C2(F)F)c(=O)n1` [gemcitabine], the “response of GIPC-depleted tumors to gemcitabine (tumor volume, weight)” value was “increasing gemcitabine efficacy” in the series on AsPC-1 tumors; “more or less similar results” in the series on AsPC-1 tumors (listed as Gemcitabine); “increasing gemcitabine efficacy” in series [3]; “significantly higher response” in series [3] (listed as Gemcitabine); “increasing gemcitabine efficacy” in series [4]; “significantly higher response” in series [4] (listed as Gemcitabine). Moreover, the “growth inhibition by gemcitabine in GIPC-depleted vs control cells” value in the series with PANC-1 cells is listed as “steeper growth inhibition curve”; with PANC-1 cells (listed as Gemcitabine) it was “sensitizes”; in the series on AsPC-1 cells, “steeper growth inhibition curve”; with AsPC-1 cells (listed as Gemcitabine), “sensitizes”.
In the case of `CCC1=C[C@@H]2CN(C1)Cc1c([nH]c3ccccc13)[C@@](C(=O)OC)(c1cc3c(cc1OC)N(C)[C@H]1[C@@](O)(C(=O)OC)[C@H](OC(C)=O)[C@]4(CC)C=CCN5CC[C@]31[C@@H]54)C2` [vinorelbine], in series [1] (vinorelbine), the “% of Total drug loading w.r.t Total lipid” value amounted to 3.5% and the “Encapsulation efficiencies (%)” value is listed as 23.7%. Further, the water solubility entry in series [2] is “highly water soluble”.
